We go through two compounds from patent US11360104B2, “Microbial-based biosensors” (TRUSTEES OF BOSTON UNIVERSITY, priority 2017, dated 2022).

Data set [1] relates to TetR variant TetRd (TetR-6His, on QD2). Put plainly: FRET sensor 3 (QD2-TetRd + Cy5-DNA) titrated with aTc; aTc-induced TF-DNA unbinding. The class given is biochemical. From the text:
(§1) The TetO cognate sequence comprises a 19 bp binding region. The 19 bp cognate sequence was flanked by 4-5 bp on each side to ensure binding, resulting in a 28 bp DNA oligo. One of the strands was labeled with the FRET acceptor Cy5 on both the 5′ and 3′ ends. A second 28 bp sequence with no affinity for TetR was similarly labeled to act as the negative control (Table 4).
(§2) Each sensor consists of Cy5-modified DNA acting as the FRET acceptor with either a fluorescent protein-transcription factor (FP-TF) fusion protein (expressed in E. coli) or quantum dot-transcription factor (QD-TF) conjugate as the donor.
(§3) A TF to DNA ratio was chosen for each sensor (1:3 for Sensor 1, 1:4.5 for Sensors 2 and 3) and kept constant for subsequent experiments testing sensor sensitivity to aTc.
(§4) To compare the three sensors, the sensor outputs were fit to a modified Hill equation written as:
(§5) [formula] where S0 is the intensity of the sensor signal with no analyte present, S1 is the intensity of the sensor signal at saturating analyte concentration, c is the analyte concentration, EC50 is the concentration at which there is 50% signal (aka the effective concentration, or EC50), and h is the Hill coefficient, which indicates cooperative binding. For visual comparison, the sensor outputs were normalized and plotted together (FIGS. 4A and B).
(§6) For Sensors 2 and 3, QDs and tetR-6His were mixed at a 1:4 ratio with a final QD concentration of 50 nM for self-assembly of the tetR-6His to the surface of the QDs^21.

Data set [2] deals with TetR variant TetRc, tdTomato fusion (tetR-tdTomato). Put plainly: FRET sensor 1 (tdTomato-TetRc + Cy5-DNA) titrated with aTc; aTc-induced TF-DNA unbinding. The class given is biochemical.
Excerpt: as §1, §2, §3, §4, §5

In data set [3] the test system is TetR variant TetRc (TetR-6His, on QD1). Put plainly: FRET sensor 2 (QD1-TetRc + Cy5-DNA) titrated with aTc; aTc-induced TF-DNA unbinding. Type of data set: biochemical.
Excerpt: as §1, §2, §3, §4, §5, §6

In another data set the test system is Pimelobacter simplex. Put plainly: Solvent and steroid exposure growth curves. The conditions noted are these: P. simplex, starting OD 0.005, constant solvent. The source says:
(§7) In order to identify steroid binding Transcription Factors, a whole transcriptome RNA sequencing (RNA-Seq) screen was developed (FIG. 7). The growth of Pimelobacter simplex bacteria was profiled with respect to the starting inoculation density, solvent toxicity, and the addition of steroids (FIG. 16). […] P. simplex bacteria were screened against the steroid solvents ethanol (EtOH) and dimethyl sulfoxide (DMSO). […] Steroid growth curves were similarly performed using a starting OD of 0.005 and constant solvent dosing with titrations of steroids. […] P. simplex bacteria were grown in the presence of 700 μM testosterone, 21.88 μM progesterone, 87.50 μM estrone, 21.88 μM 17β-estradiol, 21.88 μM hydrocortisone, or 175.00 μM aldosterone concentrations were selected for comparison.
In order to properly determine the doubling time of the strain, growth curves were performed. All growth curves were done in 100 μL per well volumes in 96 well flat clear bottom black polystyrene TC-treated microplates which were individually wrapped with a lid and sterile (Corning #3603). Measurements were done by an Infinite M200 Pro (TECAN) spectrophotometer at the temperature suited for P. simplex. Readings were performed over 96 cycles of 15 minutes each at 600 nm absorbance with 25 flashes in a 3×3 (XY-Line) type reads per well. In between reads there was orbital shaking at 150 rpm frequency for a total of 10 minutes. In order to characterize the growth alone, a ½ serial dilution of 9 concentrations from 0.5-0.0020 OD600 nm were prepared in the respective media. Then each concentration was measured as previously described using a microplate reader (TECAN) and normalized against a media background control in technical triplicate. Afterward, an appropriate starting concentration of cells was chosen with a substantially long lag-phase, linear log phase, and a plateau of stationary-phase.
Once an appropriate starting cell concentration was chosen, a secondary growth curve was performed to test the toxicity levels of the solvents used to dissolve steroids of interest. Since the steroids used are heavily hydrophobic, they often need to be dissolved in organic solvents such as DMSO or ethanol which are toxic to bacteria at high concentrations. P. simplex was incubated under microplate reader conditions previously mentioned at a starting OD determined by the first growth curve with DMSO, ethanol, or H2O at ½ serial dilutions for a total of eight concentrations (50-0.39%) tested in technical triplicate. Two controls were included per solvent; a positive control without solvent and a media control which allowed for appropriate normalization. Solvent exposure growth curves allowed for choosing the maximum amount of solvent concentration that strains would sustain while maintaining relative viability in order to determine a range of steroid concentrations which could be used.
A tertiary growth curve was performed to test the toxicity levels of steroid specific to P. simplex. The strain was incubated under microplate reader conditions previously mentioned at a starting OD determined by the first growth curve and the highest solvent concentration corresponding to the steroid of interest with steroid at ½ serial dilutions for a total of seven concentrations tested in singlet. Testosterone, progesterone, 17β-estradiol, hydrocortisone, and aldosterone were all dissolved in ethanol while estrone was dissolved in DMSO. Three controls were included for each steroid; a positive control with the highest tolerable solvent concentration (%), a positive control with media, and a media control which allowed for normalization. Steroid exposure growth curves allowed for choosing the maximum amount of steroid concentration that P. simplex would sustain while maintaining relative viability.

The target in the next data set is PinR (Nocardioides simplex (Pimelobacter simplex), UniProt A0A0A1DUF2). The data set can be described thus: Cross-reactivity test with estradiol, 1:4:6 QD:TF:oligo sensor. The conditions noted are these: FIG. 44E. Type of data set: biochemical. From the text: FIGS. 44A-44E show a schematic of the biosensor and emission plots. […] These two graphs show the difference between our sensor (blue) and negative control (orange). The lowest number of acceptor molecules with the largest difference between the signal and noise (difference between blue and orange) is the concentration ratio that we want to work with moving forward. The sensor tested moving forward comprised a 1:4:6 ratio of QD:TF:oligo-dye. Fda=Donor emission intensity in the presence of acceptor; Fd=Donor emission intensity in the absence of acceptor; Relative Donor Emission=Fda/Fd; FRET efficiency=1−Fda/Fd; Fa=Acceptor emission intensity in the presence of the donor; [QD]=50 nM; Oligo-Cy5:QD=0-48. […] When the TF is bound to the QD and the oligo is bound to the TF, which is more likely in the absence of the analyte (red line), the donor emission intensity is decreased and the acceptor emission intensity is increased (energy transfer from the QD to the dye on the oligo). The presence of the analyte decreases the affinity of the TF for the oligo, so binding is less likely; as a result, the donor emission intensity is increased and the acceptor emission intensity decreased. […] This same sensor was tested with estradiol (estrogen) as well to test for cross-reactivity. […]
Sequence of PinR (A0A0A1DUF2 entry or part of it): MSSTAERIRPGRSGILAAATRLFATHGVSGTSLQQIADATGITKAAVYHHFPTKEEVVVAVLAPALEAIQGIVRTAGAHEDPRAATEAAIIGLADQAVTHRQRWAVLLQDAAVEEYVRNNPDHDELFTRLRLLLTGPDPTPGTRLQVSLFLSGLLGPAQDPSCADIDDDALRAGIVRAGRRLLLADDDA

Data set [4] relates to steroid responsive genome island (SRGI). Put plainly: Whole transcriptome RNA-Seq of steroid treated P. simplex. The conditions noted are these: P. simplex exposed to steroid vs solvent control, Log2 fold change. Type of data set: cell-based, Pimelobacter simplex.
Excerpt: as §7
Using accession gene tags, genes were annotated for steroid relevant enzymes or transcription factors. […] Allosteric TF binding sequences are often palindromes and typically located near the start of its gene location in an intergenic space. With such a design, the allosteric TF can regulate itself or the open reading frame (ORF) near it in response to its effector molecule. […] Once identified, the TFs were cloned and recombinantly expressed for thorough characterization.
Cells were grown in 6 mL volumes of media at the OD, solvent, and steroid concentrations found from the growth curves in 14 mL polypropylene round-bottom tubes (Corning #352059) in technical duplicate. The same controls as in the steroid exposure growth curve were used for setting up RNA extraction samples. The cells were incubated at their corresponding temperature with continuous orbital shaking at 150 rpm until the end of lag-phase, mid-log phase, or stationary phase from the start of inoculation. Afterward, samples were removed and a 1:1 ratio of RNAprotect Bacteria Reagent (Qiagen #76506) was added followed by spinning down at 4° C. for 10 minutes at 4000 g. Supernatant was removed and the pellet re-suspended in 300 μL of RNAprotect and transferred into 2.0 mL Safe-Lock Tubes (Eppendorf #3101). The samples were then spun down once again at 4° C. for 10 minutes at 10000 g. Once the supernatant has been removed the samples were placed on ice and ready for RNA extraction. RNA extraction was done by Qiacube (Qiagen #9001292) set to the RNeasy Protect Bacteria Mini Kit protocol of bacterial cell pellet with enzymatic lysis. Tube A was prepared as described except with the addition of 150 mg/mL lysozyme (Sigma-Aldrich #L6876) and 20 mg/mL proteinase K (Roche #03115879001) all diluted in 1xTE buffer. RNA samples were subsequently quantified using Qubit RNA HS Assay Kit (Thermo Fisher Scientific #Q32852) and analyzed using a RNA 6000 Pico Kit (Agilent 5067-1513) in a 2100 Bioanalyzer (Agilent G2939A). RNA samples were either immediately used for RNA-Seq library preparation or stored long-term at −80° C.
RNA-Seq libraries were then produced from these samples using a slightly modified ScriptSeq v2 RNA-Seq Library Preparation Kit (Illumina 455A/22124) ensuring use of unique index primers through ScriptSeq Index PCR Primers (Sets 1-4) 48 rxns/set (Illumina #SSIP1234).

Each structure is given as a SMILES string. Like-named read-outs stand apart in the source and are kept apart here.

With `Cc1c2c(c(O)c3c(O)cccc13)C(=O)[C@]1(O)C(=O)C(C(N)=O)=C(O)[C@@H](N(C)C)[C@@H]1C2` [aTc, anhydrotetracycline], the “h (Hill coefficient)” value in data set [1] (aTc, sensor 3) is 2.14 ± 0.185; in data set [2] (aTc, sensor 1) it was 1.57 ± 0.0802; in data set [3] (aTc, sensor 2), 2.37 ± 0.191. Further, the EC50 in data set [1] (aTc, sensor 3, QD:TF:DNA 1:4:18, Table 6 fit, read-out: EC50) came out at 133 ± 6.15 nM; in data set [1] (sensor 3, legend of FIG. 4, read-out: c50 (analyte concentration that yields 50% signal, EC50)), 117 nM; in data set [2] (aTc, sensor 1, tdTomato:TF:DNA 1:1:3, Table 6 fit, read-out: EC50), 218 ± 9.18 nM; in data set [2] (sensor 1, legend of FIG. 4, read-out: c50 (analyte concentration that yields 50% signal, EC50)) it was 205 nM; in data set [3] (aTc, sensor 2, QD:TF:DNA 1:4:18, Table 6 fit, read-out: EC50) it was 699 ± 26.4 nM; in data set [3] (sensor 2, legend of FIG. 4, read-out: c50 (analyte concentration that yields 50% signal, EC50)), 682 nM.

With `C[C@]12CC[C@@H]3c4ccc(O)cc4CC[C@H]3[C@@H]1CC[C@@H]2O` [17β-estradiol, 17β-Estradiol], the “highest steroid concentration exhibiting normal growth profile” value in the data set with Pimelobacter simplex was determined as 21.88 µM. At PinR, the “impact of concentration on the sensor binding/unbinding (Fa/Fd)” value is on record as “no impact”. The “upregulation of genes inside the SRGI” value in data set [4] is “not”.
